# Earlier results, collected in patent publication US9789059B2, “Oral disintegrating tablet” (Boehringer Ingelheim International GmbH, priority 2014, dated 2017).
# Conditions: physiological pH range of the gastro-intestinal tract between pH 1 to 7; free acid form
smiles,measurement,value
"CCCc1nc2c(C)cc(-c3nc4ccccc4n3C)cc2n1Cc1ccc(-c2ccccc2C(=O)O)cc1 [Telmisartan, 4′-[2-n-propyl-4-methyl-6-(1-methylbenzimidazol-2-yl)-benzimidazol-1-ylmethyl]-biphenyl-2-carboxylic acid]",solubility in aqueous systems,very poor solubility
